Assay [1] has as its target Serine/threonine-protein kinase pim-2 (Homo sapiens, UniProt Q9P1W9). In words: Selectivity interaction (KinomeScan (DiscoverX)) EUB0000092b PIM2. Particulars: at 10 µM.
Assay [2] deals with T1, Dual specificity tyrosine-phosphorylation-regulated kinase 2 (Homo sapiens, UniProt Q92630).
T1 sequence (Q92630 whole entry): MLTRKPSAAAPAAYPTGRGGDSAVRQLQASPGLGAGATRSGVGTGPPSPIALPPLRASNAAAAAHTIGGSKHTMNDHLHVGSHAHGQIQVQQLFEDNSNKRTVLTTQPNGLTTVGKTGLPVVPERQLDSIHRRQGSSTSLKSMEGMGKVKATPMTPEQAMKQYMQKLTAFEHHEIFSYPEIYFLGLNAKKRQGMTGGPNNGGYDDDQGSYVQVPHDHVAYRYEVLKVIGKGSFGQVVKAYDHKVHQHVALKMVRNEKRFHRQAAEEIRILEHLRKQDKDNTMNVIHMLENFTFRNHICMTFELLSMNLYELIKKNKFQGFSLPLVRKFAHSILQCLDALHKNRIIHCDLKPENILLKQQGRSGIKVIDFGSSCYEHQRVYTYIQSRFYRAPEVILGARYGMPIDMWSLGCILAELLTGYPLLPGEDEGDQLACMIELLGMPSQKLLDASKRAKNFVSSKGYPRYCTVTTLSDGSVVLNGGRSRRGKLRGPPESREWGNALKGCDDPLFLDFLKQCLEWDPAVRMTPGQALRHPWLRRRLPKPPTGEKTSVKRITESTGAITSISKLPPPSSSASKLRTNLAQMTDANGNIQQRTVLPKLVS
In words: Selectivity interaction (Enzymatic assay (Eurofins)) EUB0001049a DYRK2.

Assay [3] has as its target TRAF2 and NCK-interacting protein kinase (Homo sapiens) (UniProt Q9UKE5). In words: Selectivity interaction (KinomeScan (DiscoverX)) EUB0000655a TNIK. The following applies: at 10 µM.
The target of assay [4] is T2, Muscarinic acetylcholine receptor M2 (Homo sapiens) (UniProt P08172).
T2 sequence (whole entry): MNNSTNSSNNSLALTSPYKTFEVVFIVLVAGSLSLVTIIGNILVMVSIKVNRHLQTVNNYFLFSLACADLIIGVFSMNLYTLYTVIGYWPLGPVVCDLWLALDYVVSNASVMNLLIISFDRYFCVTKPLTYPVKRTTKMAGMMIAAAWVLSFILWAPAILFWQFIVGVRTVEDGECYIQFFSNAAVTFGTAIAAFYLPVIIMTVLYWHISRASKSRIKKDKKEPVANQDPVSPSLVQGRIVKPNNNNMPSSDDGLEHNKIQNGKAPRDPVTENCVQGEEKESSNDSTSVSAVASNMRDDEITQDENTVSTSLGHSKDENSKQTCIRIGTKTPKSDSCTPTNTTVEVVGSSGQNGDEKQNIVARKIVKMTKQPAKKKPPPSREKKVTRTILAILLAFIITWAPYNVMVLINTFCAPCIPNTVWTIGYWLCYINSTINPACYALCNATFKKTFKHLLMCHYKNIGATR
In words: Selectivity interaction (Panel of kinases, GPCRs, ion channels and transporters (enzymatic assay)) EUB0000223bCl CHRM2.

Assay [5] concerns the target T3, Receptor-type tyrosine-protein kinase FLT3 (Homo sapiens, UniProt P36888).
T3 sequence (P36888 whole entry): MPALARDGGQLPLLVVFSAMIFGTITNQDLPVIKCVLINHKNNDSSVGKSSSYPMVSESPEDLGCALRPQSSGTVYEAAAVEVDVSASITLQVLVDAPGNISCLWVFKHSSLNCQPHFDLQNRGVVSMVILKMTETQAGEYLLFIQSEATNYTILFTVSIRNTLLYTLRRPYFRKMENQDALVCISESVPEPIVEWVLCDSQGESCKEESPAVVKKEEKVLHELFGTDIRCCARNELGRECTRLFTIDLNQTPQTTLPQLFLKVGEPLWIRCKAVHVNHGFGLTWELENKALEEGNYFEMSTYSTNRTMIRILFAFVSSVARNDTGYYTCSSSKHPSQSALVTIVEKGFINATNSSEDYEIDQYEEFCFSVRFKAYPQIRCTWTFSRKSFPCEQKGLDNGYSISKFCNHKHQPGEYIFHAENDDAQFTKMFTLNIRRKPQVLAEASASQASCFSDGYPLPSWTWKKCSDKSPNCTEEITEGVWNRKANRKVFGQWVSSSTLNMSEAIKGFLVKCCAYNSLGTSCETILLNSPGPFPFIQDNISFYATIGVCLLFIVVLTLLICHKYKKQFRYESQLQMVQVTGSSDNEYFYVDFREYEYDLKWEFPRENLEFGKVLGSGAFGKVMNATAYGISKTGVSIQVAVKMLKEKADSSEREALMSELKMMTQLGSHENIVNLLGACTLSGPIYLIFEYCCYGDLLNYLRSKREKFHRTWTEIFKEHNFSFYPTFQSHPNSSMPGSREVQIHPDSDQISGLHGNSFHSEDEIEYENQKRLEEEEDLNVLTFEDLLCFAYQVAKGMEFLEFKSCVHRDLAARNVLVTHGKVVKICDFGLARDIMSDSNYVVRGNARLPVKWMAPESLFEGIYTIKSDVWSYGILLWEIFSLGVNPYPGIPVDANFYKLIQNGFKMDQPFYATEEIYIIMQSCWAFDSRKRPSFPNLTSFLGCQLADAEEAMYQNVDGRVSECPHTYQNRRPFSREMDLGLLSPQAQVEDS
As to the kind of experiment: Selectivity interaction (NanoBRET assay (HEK293T cells)) EUB0001559a FLT3. Type of assay: cell-based, HEK-293T. On the technique in general: Bioluminescence resonance energy transfer reports proximity on the nanometre scale.

The target of assay [6] is Mitogen-activated protein kinase kinase kinase 11 (Homo sapiens) (UniProt Q16584). As to the kind of experiment: Selectivity interaction (ActivX KiNativ screen (ex vivo kinase selectivity in human PBMCs)) EUB0001619a MAP3K11. The class given is cell-based. Particulars: PBMC, at 1 µM.
Mitogen-activated protein kinase kinase kinase 11 (Homo sapiens), sequence (Q16584 whole entry, looked up): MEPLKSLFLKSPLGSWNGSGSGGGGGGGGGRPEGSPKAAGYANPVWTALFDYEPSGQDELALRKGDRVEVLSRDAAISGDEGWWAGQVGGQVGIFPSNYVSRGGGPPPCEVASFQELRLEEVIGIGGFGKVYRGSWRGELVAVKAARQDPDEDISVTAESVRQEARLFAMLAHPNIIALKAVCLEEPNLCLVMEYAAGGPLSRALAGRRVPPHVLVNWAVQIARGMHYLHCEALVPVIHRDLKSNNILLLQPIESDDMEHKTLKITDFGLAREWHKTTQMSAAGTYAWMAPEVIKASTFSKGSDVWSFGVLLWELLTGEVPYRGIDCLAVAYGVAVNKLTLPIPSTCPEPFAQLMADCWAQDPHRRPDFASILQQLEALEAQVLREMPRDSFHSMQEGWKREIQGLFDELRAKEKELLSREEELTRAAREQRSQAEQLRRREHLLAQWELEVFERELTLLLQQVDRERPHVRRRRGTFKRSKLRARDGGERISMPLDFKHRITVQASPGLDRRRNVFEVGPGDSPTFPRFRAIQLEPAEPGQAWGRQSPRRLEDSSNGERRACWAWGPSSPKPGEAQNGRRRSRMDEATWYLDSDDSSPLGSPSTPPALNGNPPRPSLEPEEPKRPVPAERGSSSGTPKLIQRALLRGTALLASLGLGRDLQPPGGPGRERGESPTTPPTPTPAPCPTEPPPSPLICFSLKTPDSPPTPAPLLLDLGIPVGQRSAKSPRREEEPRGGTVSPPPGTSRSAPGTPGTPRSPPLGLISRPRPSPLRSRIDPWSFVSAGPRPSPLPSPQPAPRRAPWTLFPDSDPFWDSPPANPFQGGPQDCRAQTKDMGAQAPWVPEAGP

Some results are limits rather than exact numbers.

Serine/threonine-protein kinase pim-2, sequence (Q9P1W9 whole entry, looked up): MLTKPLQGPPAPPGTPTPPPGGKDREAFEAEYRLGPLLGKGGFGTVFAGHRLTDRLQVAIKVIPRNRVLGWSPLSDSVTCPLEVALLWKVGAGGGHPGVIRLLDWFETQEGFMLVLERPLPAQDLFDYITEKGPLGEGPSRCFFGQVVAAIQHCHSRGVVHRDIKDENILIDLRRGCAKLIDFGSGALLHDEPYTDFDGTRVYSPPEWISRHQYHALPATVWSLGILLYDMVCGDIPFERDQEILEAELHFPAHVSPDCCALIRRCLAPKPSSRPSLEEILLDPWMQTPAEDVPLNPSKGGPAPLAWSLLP
TRAF2 and NCK-interacting protein kinase (Homo sapiens), sequence (Q9UKE5 whole entry, looked up): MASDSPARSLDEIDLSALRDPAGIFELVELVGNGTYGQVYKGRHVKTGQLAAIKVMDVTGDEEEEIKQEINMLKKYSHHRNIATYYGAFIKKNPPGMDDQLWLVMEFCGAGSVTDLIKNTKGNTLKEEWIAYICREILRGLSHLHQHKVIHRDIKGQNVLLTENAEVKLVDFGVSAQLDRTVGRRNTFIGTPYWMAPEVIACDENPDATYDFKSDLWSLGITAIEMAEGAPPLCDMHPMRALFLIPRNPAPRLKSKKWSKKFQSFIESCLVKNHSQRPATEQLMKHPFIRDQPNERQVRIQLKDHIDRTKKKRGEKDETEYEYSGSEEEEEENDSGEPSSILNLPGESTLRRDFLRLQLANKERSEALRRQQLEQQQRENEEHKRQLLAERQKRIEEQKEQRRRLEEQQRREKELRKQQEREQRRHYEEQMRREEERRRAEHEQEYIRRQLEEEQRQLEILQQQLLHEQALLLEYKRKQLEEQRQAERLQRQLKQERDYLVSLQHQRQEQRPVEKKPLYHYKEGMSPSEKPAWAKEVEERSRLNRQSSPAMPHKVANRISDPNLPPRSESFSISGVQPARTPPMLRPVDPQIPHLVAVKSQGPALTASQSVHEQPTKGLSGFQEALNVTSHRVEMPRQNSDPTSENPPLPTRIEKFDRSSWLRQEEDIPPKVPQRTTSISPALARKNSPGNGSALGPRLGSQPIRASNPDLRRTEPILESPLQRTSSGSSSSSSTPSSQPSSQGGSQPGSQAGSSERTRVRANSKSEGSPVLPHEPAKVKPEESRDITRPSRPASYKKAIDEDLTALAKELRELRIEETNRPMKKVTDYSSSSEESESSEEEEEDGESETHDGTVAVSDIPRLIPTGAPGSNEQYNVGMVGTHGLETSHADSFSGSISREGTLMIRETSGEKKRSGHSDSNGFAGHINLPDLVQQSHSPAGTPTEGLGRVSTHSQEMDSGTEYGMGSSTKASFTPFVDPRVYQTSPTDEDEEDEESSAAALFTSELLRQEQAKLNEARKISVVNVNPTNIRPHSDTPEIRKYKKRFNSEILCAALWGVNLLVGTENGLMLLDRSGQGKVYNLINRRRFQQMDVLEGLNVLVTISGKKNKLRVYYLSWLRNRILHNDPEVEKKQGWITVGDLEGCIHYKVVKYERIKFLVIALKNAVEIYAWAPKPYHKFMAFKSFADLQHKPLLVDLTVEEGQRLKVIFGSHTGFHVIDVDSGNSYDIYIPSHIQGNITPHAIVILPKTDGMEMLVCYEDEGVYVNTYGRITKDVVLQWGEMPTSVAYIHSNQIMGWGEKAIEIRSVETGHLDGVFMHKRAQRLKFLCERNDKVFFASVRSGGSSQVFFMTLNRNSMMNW

`CCC(=O)N1CCN(c2ccc(-n3c(=O)ccc4cnc5ccc(-c6cnc7ccccc7c6)cc5c43)cc2C(F)(F)F)CC1` came in with a % of control in assay [1] of 62%. One may read the IC50 as the concentration that gives 50% inhibition. Read a low IC50 as higher potency. As to `COc1cc(Nc2nc(C)cc(-c3cnn4nc(OC)ccc34)n2)cc(C(F)(F)F)c1`, the IC50 in assay [2] was > 0.01 mM.

In turn, `CN(C)CCOc1ccc(-c2nc(-c3ccncc3)c(-c3ccc4c(c3)CC/C4=N\O)[nH]2)cc1` showed a % of control in assay [3] of 12%.

`COc1cc(C(=O)N2CC[C@@H](O)[C@@H](N)C2)cc2nc(-c3cc4ccccc4n3CC3CC3)n(C)c12`: the pXC50 in assay [4] is < 4.8 M. In general, EC50 refers to the concentration needed to bring the measured effect to its halfway point. Read a low EC50 as greater potency. Compound `CN(C(=O)c1cnn2cccnc12)c1cc2c(cc1N1CCOCC1)C(=O)N(C[C@@H](F)C(C)(C)O)C2` showed an EC50 in assay [5] of 3.6 mM. Turning to `N#Cc1cccc(-c2c[nH]c3ncnc(N4CCOCC4)c23)c1`, in assay [6], the % of inhibition was determined as 20%.

The values above are taken from ChEMBL document CHEMBL5465560, “Selectivity Literature for EUbOPEN Chemogenomic Library” (2024).
